{
  "source": "patent US3965103A",
  "about": "“4-Nitroperhydropyrido[1,2-a][1,4]diazepines” (Schering Aktiengesellschaft, priority 1973, dated 1976)",
  "key": {"[1]": {"test_system": "Asp. fum.", "assay": "Tube Dilution Test in liquid media", "type": "cell-based", "excerpt": "(§1) The above mentioned greater activity against dermatophytes, yeasts and other fungi compared to \"Bronopol\" is illustrated in Table 1:\n(§2) MIC (μg./ml.) in the Tube Dilution Test in liquid media"}, "[2]": {"test_system": "Mucor. pus.", "assay": "Tube Dilution Test in liquid media", "type": "cell-based", "excerpt": "as §1, §2"}, "[3]": {"test_system": "Sacch. cer.", "assay": "Tube Dilution Test in liquid media", "type": "cell-based", "excerpt": "as §1, §2"}, "[4]": {"test_system": "Trichoph. ment.", "assay": "Tube Dilution Test in liquid media", "type": "cell-based", "excerpt": "as §1, §2"}, "[5]": {"test_system": "Candid. alb.", "assay": "Tube Dilution Test in liquid media", "type": "cell-based", "excerpt": "as §1, §2"}, "[6]": {"test_system": "Microsp. gypseum", "assay": "Tube Dilution Test in liquid media", "type": "cell-based", "excerpt": "as §1, §2"}, "[7]": {"test_system": "Trichoph. rubr.", "assay": "Tube Dilution Test in liquid media", "type": "cell-based", "excerpt": "as §1, §2"}, "[8]": {"test_system": "Asp. nig.", "assay": "Tube Dilution Test in liquid media", "type": "cell-based", "excerpt": "as §1, §2"}, "[9]": {"test_system": "Pen. notat.", "assay": "Tube Dilution Test in liquid media", "type": "cell-based", "excerpt": "as §1, §2"}, "[10]": {"test_system": "Asp. flav.", "assay": "Tube Dilution Test in liquid media", "type": "cell-based", "excerpt": "as §1, §2"}, "[11]": {"test_system": "Chaet. glob.", "assay": "Tube Dilution Test in liquid media", "type": "cell-based", "excerpt": "as §1, §2"}, "[12]": {"test_system": "Paecilomyc.", "assay": "Tube Dilution Test in liquid media", "type": "cell-based", "excerpt": "as §1, §2"}, "[13]": {"test_system": "Fusar.", "assay": "Tube Dilution Test in liquid media", "type": "cell-based", "excerpt": "as §1, §2"}, "[14]": {"test_system": "bacteria", "settings": "known from U.S. Pat. No. 3,558,788; cited from earlier work"}, "[15]": {"settings": "Sacch. cer., tube dilution test, liquid media, read-out: MIC"}},
  "note": "Read-outs that look alike come from different tables or passages of the source.",
  "data": [
    {"smiles": "CN1CC2CCCCN2CC(Cc2ccccc2)([N+](=O)[O-])C1.Cl.Cl", "note": "(centres unmarked) [4-Benzyl-2-methyl-4-nitroperhydropyrido[1,2-a] [1,4]-diazepine dihydrochloride]", "values": [
      {"measurement": "MIC", "setting": "[1]", "result": 31, "unit": "µg/mL"},
      {"measurement": "MIC", "setting": "[2]", "result": 8, "unit": "µg/mL"},
      {"measurement": "MIC", "setting": "[3]; [15]", "result": 4, "unit": "µg/mL"},
      {"measurement": "MIC", "setting": "[4]", "result": 4, "unit": "µg/mL"},
      {"measurement": "MIC", "setting": "[5]", "result": 4, "unit": "µg/mL"},
      {"measurement": "MIC", "setting": "[6]", "result": 8, "unit": "µg/mL"},
      {"measurement": "MIC", "setting": "[7]", "result": 2, "unit": "µg/mL"},
      {"measurement": "MIC", "setting": "[8]", "result": 125, "unit": "µg/mL"},
      {"measurement": "MIC", "setting": "[9]", "result": 125, "unit": "µg/mL"},
      {"measurement": "MIC", "setting": "[10]", "result": 63, "unit": "µg/mL"},
      {"measurement": "MIC", "setting": "[11]", "result": 63, "unit": "µg/mL"},
      {"measurement": "MIC", "setting": "[12]", "result": 16, "unit": "µg/mL"}
    ]},
    {"smiles": "CCCCC1([N+](=O)[O-])CN(C)CC2CCCCN2C1.Cl.Cl", "note": "(centres unmarked) [4-n-Butyl-2-methyl-4-nitroperhydropyrido[1,2-a] [1,4] diazepine dihydrochloride]", "values": [
      {"measurement": "MIC", "setting": "[1]", "result": 8, "unit": "µg/mL"},
      {"measurement": "MIC", "setting": "[2]", "result": 2, "unit": "µg/mL"},
      {"measurement": "MIC", "setting": "[3]; [15]", "result": 4, "unit": "µg/mL"},
      {"measurement": "MIC", "setting": "[4]", "result": 2, "unit": "µg/mL"},
      {"measurement": "MIC", "setting": "[5]", "result": 8, "unit": "µg/mL"},
      {"measurement": "MIC", "setting": "[6]", "result": 8, "unit": "µg/mL"},
      {"measurement": "MIC", "setting": "[7]", "result": 2, "unit": "µg/mL"},
      {"measurement": "MIC", "setting": "[8]", "result": 31, "unit": "µg/mL"},
      {"measurement": "MIC", "setting": "[9]", "result": 8, "unit": "µg/mL"},
      {"measurement": "MIC", "setting": "[10]", "result": 4, "unit": "µg/mL"},
      {"measurement": "MIC", "setting": "[11]", "result": 8, "unit": "µg/mL"},
      {"measurement": "MIC", "setting": "[13]", "result": 16, "unit": "µg/mL"},
      {"measurement": "MIC", "setting": "[12]", "result": 63, "unit": "µg/mL"}
    ]},
    {"smiles": "O=[N+]([O-])C(Br)(CO)CO", "note": "[Bronopol, 2-bromo-2-nitropropane-1,3-diol, reference compound]", "values": [
      {"measurement": "antibacterial activity", "setting": "[14]", "result": "has antibacterial activity"},
      {"measurement": "MIC", "setting": "[1]", "result": 63, "unit": "µg/mL"},
      {"measurement": "MIC", "setting": "[2]", "result": 63, "unit": "µg/mL"},
      {"measurement": "MIC", "setting": "[3]", "result": 125, "unit": "µg/mL"},
      {"measurement": "MIC", "setting": "[4]", "result": 8, "unit": "µg/mL"},
      {"measurement": "MIC", "setting": "[5]", "result": 63, "unit": "µg/mL"},
      {"measurement": "MIC", "setting": "[6]", "result": 16, "unit": "µg/mL"},
      {"measurement": "MIC", "setting": "[7]", "result": 4, "unit": "µg/mL"},
      {"measurement": "MIC", "setting": "[8]", "result": "> 1000", "unit": "µg/mL"},
      {"measurement": "MIC", "setting": "[9]", "result": "> 1000", "unit": "µg/mL"},
      {"measurement": "MIC", "setting": "[10]", "result": "> 1000", "unit": "µg/mL"},
      {"measurement": "MIC", "setting": "[11]", "result": "> 1000", "unit": "µg/mL"},
      {"measurement": "MIC", "setting": "[12]", "result": 250, "unit": "µg/mL"}
    ]}
  ]
}
